Key:
human GnRH receptor = biological target: T1, human GnRH receptor (Homo sapiens, UniProt P30968); experiment: Test on GnRH receptor antagonism (125I-D-Trp6-LHRH binding inhibition); conditions: inhibition of 125I-D-Trp6-LHRH binding to human GnRH receptor
T1 sequence (P30968 1-328): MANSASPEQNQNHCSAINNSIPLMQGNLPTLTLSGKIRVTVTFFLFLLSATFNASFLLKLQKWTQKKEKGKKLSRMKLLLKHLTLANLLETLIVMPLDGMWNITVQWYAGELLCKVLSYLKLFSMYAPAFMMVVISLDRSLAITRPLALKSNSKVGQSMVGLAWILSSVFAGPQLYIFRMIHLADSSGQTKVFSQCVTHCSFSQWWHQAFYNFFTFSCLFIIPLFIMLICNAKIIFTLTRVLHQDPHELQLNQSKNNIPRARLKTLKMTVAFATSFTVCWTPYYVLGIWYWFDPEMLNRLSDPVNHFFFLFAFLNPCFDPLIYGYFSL
Text: GnRH receptor antagonism test method described on p. 56 of the Patent Reference 1.

[1] = Measurement of blood concentration of a compound by ex vivo binding assay; conditions: Wistar male rat, oral 10 mg/kg in 0.5% MC, serum 2 hours after administration, read-out: Blood compound concentration (B) 2 hour value
Description: Each compound to be tested was dissolved or suspended in 0.5% methyl cellulose (MC) solution and was orally administered to Wistar male rat of 9 weeks of age (SLC Japan) at a dose of 10 mg/kg. Blood sample was collected after 2 hours of the administration to obtain serum.
Each serum sample was mixed with the same volume of methanol to remove protein and optionally diluted with an assay buffer, and then the ^125I-D-Trp^6-LHRH binding inhibition ratio was measured in the same manner as in Test Example 1. Using a separately prepared calibration curve on the concentration-binding inhibition of compounds to be tested, blood concentration of each compound (μM) was calculated from the binding inhibition ratio.

Cytochrome P450 (CYP3A4) = Cytochrome P450 (CYP3A4) (Homo sapiens, UniProt P08684); experiment: Cytochrome P450 (CYP3A4) enzyme inhibition, Inhibition Test II (preincubation); type: in vitro ADME; conditions: 30 minutes preincubation with human liver microsome and NADPH, then midazolam 20 minutes; compared with Ex 40, Ex 251, Ex 239 of Patent Reference 1
Description: Thereafter, midazolam as the substrate was added thereto and incubated at 37° C. for 20 minutes.

[2] = Test on metabolic stability in human liver microsome; type: in vitro ADME; conditions: human liver microsome 0.2 mg protein/ml, 37° C. 15 minutes; compared with Ex 40, Ex 251, Ex 239 of Patent Reference 1

Cytochrome P450 (CYP3A4), sequence (P08684 whole entry): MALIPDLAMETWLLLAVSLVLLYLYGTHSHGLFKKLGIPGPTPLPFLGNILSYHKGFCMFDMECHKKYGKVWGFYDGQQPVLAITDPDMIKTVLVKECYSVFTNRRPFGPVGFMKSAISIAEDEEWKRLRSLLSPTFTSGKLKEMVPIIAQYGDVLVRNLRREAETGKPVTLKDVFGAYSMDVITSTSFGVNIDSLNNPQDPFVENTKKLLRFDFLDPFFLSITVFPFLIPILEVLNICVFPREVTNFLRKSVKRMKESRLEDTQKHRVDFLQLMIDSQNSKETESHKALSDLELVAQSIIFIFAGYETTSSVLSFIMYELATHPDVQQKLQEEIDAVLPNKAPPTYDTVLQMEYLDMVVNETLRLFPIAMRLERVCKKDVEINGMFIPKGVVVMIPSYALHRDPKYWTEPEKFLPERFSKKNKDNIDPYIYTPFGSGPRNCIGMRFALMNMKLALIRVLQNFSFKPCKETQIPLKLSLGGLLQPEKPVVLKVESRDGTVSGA

Row | SMILES | IC50 (human GnRH receptor) | concentration at 2 h [1] | Inhibitory activity II (CYP3A4) (Cytochrome P450 (CYP3A4)) | melting point | metabolic stability in human liver microsome (in vitro clearance) [2]
1 | O=C(C(C(=O)c1cc(F)c(F)c(F)c1)=C1Nc2ccccc2N1)c1cccc(C(O)CO)c1 (stereo not drawn) [Ex 2-4] | 0.17 nM | 1310 nM | superior actions | 139 to 140 °C | superior metabolic stability
2 | O=C(C(C(=O)c1cccc(C(O)CO)c1)=C1Nc2ccccc2N1)c1cccc(F)c1 (stereo not drawn) [Ex 2-7] | 0.19 nM | 1650 nM |  |  | 
3 | O=C(C(C(=O)c1cccc(C(O)CO)c1)=C1Nc2cc(F)c(Cl)cc2N1)c1cc(F)cc(F)c1 (stereo not drawn) [Ex 2-12] | 0.15 nM | 920 nM |  |  | 
4 | O=C(C(C(=O)c1cc(C(O)CO)ccc1F)=C1Nc2ccccc2N1)c1cc(F)cc(F)c1 (stereo not drawn) [Ex 2-20] | 0.2 nM | 1140 nM |  |  | 
5 | O=C(C(C(=O)c1cc(F)cc(F)c1F)=C1Nc2ccccc2N1)c1cccc(C(O)CO)c1 (stereo not drawn) [Ex 2-48] | 0.22 nM | 2160 nM |  | 127 to 129 °C | 
6 | O=C(C(C(=O)c1cccc([C@@H](O)CO)c1Cl)=C1Nc2ccccc2N1)c1cccc(F)c1 [Ex 4-21] | 0.24 nM | 2170 nM | superior actions | 125 to 127 °C | superior metabolic stability
7 | O=C(C(C(=O)c1ccc(F)c([C@@H](O)CO)c1)=C1Nc2ccccc2N1)c1cc(F)cc(F)c1 [Ex 4-22] | 0.13 nM | 2170 nM | superior actions | 147 to 149 °C | superior metabolic stability
8 | Cc1c(C(=O)C(C(=O)c2cccc(Cl)c2)=C2Nc3ccccc3N2)cccc1[C@@H](O)CO [Ex 4-23] | 0.18 nM | 1110 nM |  |  | 
9 | Cc1cccc(C(=O)C(C(=O)c2cccc([C@@H](O)CO)c2C)=C2Nc3ccccc3N2)c1 [Ex 4-25] | 0.14 nM | 1390 nM | superior actions |  | superior metabolic stability
10 | Cc1c(C(=O)C(C(=O)c2ccccc2F)=C2Nc3ccccc3N2)cccc1[C@@H](O)CO [Ex 4-29] | 0.19 nM | 6440 nM | superior actions | 215 to 217 °C | superior metabolic stability
11 | Cc1cccc(C(=O)C(C(=O)c2cccc([C@@H](O)CO)c2Cl)=C2Nc3ccccc3N2)c1 [Ex 4-32] | 0.12 nM | 670 nM |  |  | 
12 | O=C(C(C(=O)c1cccc([C@@H](O)CO)c1F)=C1Nc2ccccc2N1)c1cc(F)cc(F)c1 [Ex 4-33] | 0.12 nM | 1590 nM |  |  | 
13 | O=C(C(C(=O)c1cccc([C@@H](O)CO)c1)=C1Nc2ccccc2N1)c1cc(F)cc(F)c1 [Ex 13-2, 1-(3,5-difluorophenyl)-2-(1,3-dihydro-2H-benzimidazol-2-ylidene)-3-{3-[(1R)-1,2-dihydroxyethyl]phenyl}propane-1,3-dione] |  |  |  | 189 to 190 °C | 

More lines, in order of falling IC50 (human GnRH receptor), values ahead:

Row | IC50 (human GnRH receptor) | concentration at 2 h [1] | Inhibitory activity II (CYP3A4) (Cytochrome P450 (CYP3A4)) | melting point | metabolic stability in human liver microsome (in vitro clearance) [2] | SMILES
14 | 0.12 nM | 880 nM |  |  |  | O=C(C(C(=O)c1cccc(C(O)CO)c1)=C1Nc2ccccc2N1)c1cccc(Cl)c1 (stereo not drawn) [Ex 2-50]
15 | 0.12 nM | 3740 nM | superior actions | 228 to 229 °C | superior metabolic stability | Cc1c(C(=O)C(C(=O)c2cc(F)cc(F)c2)=C2Nc3ccccc3N2)cccc1[C@@H](O)CO [Ex 4-5]
16 | 0.1 nM | 820 nM |  |  |  | O=C(C(C(=O)c1cccc(C(O)CO)c1)=C1Nc2ccc(F)cc2N1)c1cc(F)cc(F)c1 (stereo not drawn) [Ex 2-5]
17 | 0.1 nM | 1040 nM | superior actions | 197 to 198 °C | superior metabolic stability | O=C(C(C(=O)c1cccc([C@@H](O)CO)c1F)=C1Nc2ccccc2N1)c1cccc(F)c1 [Ex 4-4]
18 | 0.1 nM | 1500 nM | superior actions | 126 to 129 °C | superior metabolic stability | O=C(C(C(=O)c1cccc([C@@H](O)CO)c1Cl)=C1Nc2ccccc2N1)c1cc(F)cc(F)c1 [Ex 4-30]
19 | 0.093 nM | 1360 nM | superior actions | 190 to 191 °C | superior metabolic stability | O=C(C(C(=O)c1cccc([C@@H](O)CO)c1)=C1Nc2ccccc2N1)c1cccc(F)c1 [Ex 4-1, 2-(1,3-dihydro-2H-benzimidazol-2-ylidene)-1-{3-[(1R)-1,2-dihydroxyethyl]phenyl}-3-(3-fluorophenyl)propane-1,3-dione]
20 | 0.082 nM | 710 nM |  |  |  | O=C(C(C(=O)c1cccc(C(O)CO)c1)=C1Nc2ccccc2N1)c1cc(F)cc(Cl)c1 (stereo not drawn) [Ex 2-3]
21 | 0.081 nM | 1790 nM |  | 132 to 133 °C |  | CCCCc1c(C(=O)C(C(=O)c2cccc(F)c2)=C2Nc3ccccc3N2)cccc1[C@@H](O)CO [Ex 4-8]
22 | 0.076 nM | 1440 nM |  | 134 to 136 °C |  | O=C(C(C(=O)c1cccc([C@@H](O)CO)c1Cl)=C1Nc2ccccc2N1)c1cccc(Cl)c1 [Ex 4-15]

Reference: US8076367B2, “Benzimidazolylidene propane-1,3-dione derivative or salt thereof” (Astellas Pharma Inc., priority 2004, dated 2011)
